Earlier results, collected in patent US20240299470A1, “METHODS OF PROBIOTIC TREATMENT TO IMPROVE HUMAN HEALTH” (SEED HEALTH INC., priority 2021, published 2024).

Experiments:
overweight individuals = details: delivered directly in the colon
mice = details: NOD2-dependent but MyD88-independent

| Compound | energy intake, adiposity, and lipid liver content (overweight individuals) | plasma levels of peptide YY (PYY) and glucagon-like peptide 1 (GLP-1) (overweight individuals) | protection from colitis (mice) |
| --- | --- | --- | --- |
| CCC(=O)O [propionate] | reduced | increased |  |
| M-tri-Lys |  |  | protected mice from colitis |
